Measurements from paper PMC5595280, “Cytotoxicity and anti-tumor effects of new ruthenium complexes on triple negative breast cancer cells” (PLoS ONE, 2017).

Columns and labels:
[1] = tested on: DNA; design: method as in not given; settings: order of magnitude reported for classical intercalators; ref not given; cited from earlier work
[2] = tested on: MCF-7 cells; test: MTT cell proliferation assay; format: cell-based, human; settings: 24 h of incubation, read-out: IC50 ±SEM MCF-7
Experimental: (§1) MDA-MB-231 human breast tumor cells and MCF7 human breast tumor cells, obtained from Rio de Janeiro Cell Bank, were maintained at 37°C in 5% CO2 in DMEM medium containing fetal bovine serum (FBS) 10% (Vitrocell). MCF-10A, a non-tumor breast cell line, obtained from Rio de Janeiro Cell Bank, was cultivated in DMEM/F12 medium containing horse serum (HS) 5%, EGF (0.02 mg/mL); hydrocortisone (0.05 mg/mL); cholera toxin (0.001 mg/mL) and insulin (0.01 mg/mL). Both media contained penicillin (100 UI/mL), streptomycin ([…]) and L-glutamine (2 mM).
(§2) Proliferation assays were performed as described earlier. Briefly, cells lines were prepared in a concentration of 1x10^4 cells/100 μL, in complete medium (with 10% FBS), and plated on sterile 96-well plates for 24 h. The culture medium was removed from the wells and a new one, supplemented with 10% FBS and containing different concentrations of (1) [Ru(SO4)(dppb)(bipy)] (2) [Ru(CO3)(dppb)(bipy)], (3), [Ru(C2O4)(dppb)(bipy)], or (4) [Ru(CH3CO2)(dppb)(bipy)]PF6, was added to the wells. Cells were incubated for 24 h under the same conditions as described above. Cell proliferation assay was performed in comparison with untreated control. After incubation, the culture medium of each well was removed and a solution containing MTT (1 mg/mL) was added (100 μL/well). The plates were then kept at 37°C for 4 h and the formed crystals were dissolved in DMSO. The absorbance was read on an ELISA plate reader at a wavelength of 540 nm. […] The selectivity index (SI) was calculated as the ratio IC50 (MCF-10A) / IC50 (MDA-MB-231).
(§3) Each experiment was repeated three times in triplicate and a standard error mean was calculated. Shapiro-Wilk’s test was used to verify data normality. As normal distribution was present, the results were compared statistically with a one-way or two-way analysis of variance (ANOVA). […] The data were analysed and IC50 calculations were made using Hill’s equation in the GraphPad Prism software (version 6.05).

[3] = tested on: MDA-MB-231 cells; test: MTT cell proliferation assay; format: cell-based, human; settings: 24 h of incubation, read-out: IC50 ±SEM MDA-MB-231
Experimental: as §1, §2, §3

[4] = tested on: MCF-10A cells; test: MTT cell proliferation assay; format: cell-based, human; settings: 24 h of incubation, read-out: IC50 ±SEM MCF-10A
Experimental: as §1, §2, §3

[5] = target: HSA (Homo sapiens, UniProt P02768); test: HSA tryptophan fluorescence quenching; format: binding; settings: for ΔS (HSA): complex-HSA system
HSA, sequence (P02768 25-609): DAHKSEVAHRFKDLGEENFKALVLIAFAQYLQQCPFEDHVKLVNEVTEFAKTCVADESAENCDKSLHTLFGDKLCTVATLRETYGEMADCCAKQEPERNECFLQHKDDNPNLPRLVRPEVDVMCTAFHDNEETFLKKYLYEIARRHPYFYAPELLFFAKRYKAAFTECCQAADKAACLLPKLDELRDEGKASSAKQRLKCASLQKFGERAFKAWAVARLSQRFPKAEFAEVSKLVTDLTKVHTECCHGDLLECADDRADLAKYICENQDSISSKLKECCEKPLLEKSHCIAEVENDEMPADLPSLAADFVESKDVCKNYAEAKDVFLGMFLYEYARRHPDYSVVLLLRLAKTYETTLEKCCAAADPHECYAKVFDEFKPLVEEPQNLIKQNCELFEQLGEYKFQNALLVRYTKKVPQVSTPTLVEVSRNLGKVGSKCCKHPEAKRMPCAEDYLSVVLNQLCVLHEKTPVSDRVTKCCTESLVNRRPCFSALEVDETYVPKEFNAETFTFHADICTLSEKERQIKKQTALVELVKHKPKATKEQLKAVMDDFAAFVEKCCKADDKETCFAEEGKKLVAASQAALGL
Experimental: For fluorescence measurements, the HSA concentration in Tris–HCl buffer was kept constant in all the samples, while the complex concentration was increased from 0.50 to 50 μM, and quenching of the emission intensity of the HSA tryptophan residues at 305 nm (excitation wavelength 270 nm) was monitored at different temperatures (25°C and 37°C). The experiments were carried out in triplicate and analysed using the classical Stern-Volmer equation. The binding constant (Kb) and number of complexes bound to HSA (n) were determined by plotting the double log graph of the fluorescence data using: log [(F0-F)/F] = log Kb + nlog[Q]. The thermodynamic parameter (ΔH) was calculated from equation: ln (K2/K1) = [(1/T1)-(1/T2)]ΔH/R, where K1 and K2 are the binding constants at temperatures T1 and T2, and R is the gas constant. Furthermore, the change in free energy (ΔG) and entropy (ΔS) were calculated from the following equation: ΔG = -RT lnK = ΔH − TΔS.
Human serum albumin (HSA) is the most abundant protein in the blood and cerebrospinal fluid and plays a fundamental role in the distribution of essential transition metal ions in the human body. Moreover, HSA is an important physiological transporter of the essential metal ions Cu^2+, and Zn^2+ in the bloodstream. […] The fluorescence spectrum is essentially that of tryptophan residue; contribution of tyrosine is relatively minor. In order to determine the protein binding affinity of complexes (1–4), tryptophan emission quenching experiments were carried out by adding the complexes in increasing concentration (0–50 μM) to HSA at two different temperatures and following the decrease in fluorescence intensities (Fig 6D). The results point out a good linearity at the two different temperatures. The binding constants, KSV, calculated from the Stern-Volmer equation are presented on Table 2.

[6] = tested on: MCF-7 cells; test: Cell morphology (inverted microscope); format: cell-based, human; settings: MCF-7, 25 and 50 μM, 24 h
Experimental: (§4) Exponentially growing MDA-MB-231, MCF-7 or MCF-10A cells were harvested, counted and seeded (1x10^5 cells/mL) and plated on sterile 12-well plates for 24 h. Cells were allowed to grow at 37°C in 5% CO2 overnight and then, treated or not (control) with different concentrations of the complexes (1–4) for 2 and 24 h. Cell morphology was examined under an inverted microscope (Nikon, T5100) with amplification of 100×.
(§5) In this work the cytotoxicity of the complexes was evaluated against the MDA-MB-231, MCF-7 and MCF-10A cells by morphology, clonogenic and MTT assays (Fig 2, Table 1). To investigate the effects on cell morphology, the complexes were incubated with cells at concentrations of 25 and 50 μM for 24 h.

[7] = tested on: MDA-MB-231 cells; test: Cell morphology (inverted microscope); format: cell-based, human; settings: 24 h
Experimental: as §4, §5

[8] = tested on: MCF-10A cells; test: Cell morphology (inverted microscope); format: cell-based, human; settings: 24 h; for effect on cell morphology: 25 and 50 μM
Experimental: as §4, §5

[9] = Water-octanol partition coefficient (stir-flask method); format: physicochemical; settings: 24 h shaking, 37°C
Experimental: The water-octanol partition coefficients were determined by use of the stir-flask method. The complex was added in a mixture with equal volumes of water and octanol shaking by 24 h at 100 rpm and 37°C, samples were centrifuged for 5min at 300rpm, the organic and aqueous phases were separated. The concentration of drug in each phase was measured spectrophotometrically in order to determine values of P = [drug] (in octanol)/[drug] (in water).

[10] = tested on: pBR322 plasmid DNA; test: Agarose gel electrophoresis of plasmid DNA; format: binding; settings: Ri 0.50, 18 h, 37°C
Experimental: Ten microliters of pBR322 plasmid DNA in a Tris-HCl buffer were incubated at 37°C for 18 h with molar ratios between 0.12 and 0.5. After incubation, 5 μL of each sample was separated by electrophoresis in a 1% agarose gel for 45 min at 100V using a Tris borate–EDTA buffer (TBE) and stained with ethidium bromide ([…] ethidium bromide per 40 mL agarose gel mixture). Samples of DNA with DMSO were used as controls. The DNA bands were visualized as an image using a UV light transilluminator (ChemiDoc MP, BioRad Laboratories).
The influence of the compounds on the tertiary structure of DNA was determined by their ability to modify the electrophoretic mobility of forms of pBR322 plasmid DNA (Fig 6C). Agarose gel electrophoresis was performed using pBR322 plasmid DNA in the absence and presence of the complexes. […] In Ri 0.12 and 0.25 complexes (1–3) show the corresponding open circular, linear and super coiled form. […] This means that the degree of super helicity of the DNA molecules has been altered, in the same way as that described previously for other coordination platinum(II) and palladium (II) compounds containing 7-azaindolyl ligand [36].

Row | Compound | DNA binding constant [1] | IC50 [2] [µM] | IC50 [3] [µM] | IC50 [4] [µM] | Kq (HSA) ([5]; T 298) [M⁻¹ s⁻¹] | Ksv (HSA) ([5]; T 298) | n (number of binding sites, HSA) ([5]; T 298) | Kq (HSA) ([5]; T 310) [M⁻¹ s⁻¹] | Ksv (HSA) ([5]; T 310) | n (number of binding sites, HSA) ([5]; T 310) | ΔS (HSA) [5] [J.mol^-1K] | effect on cell morphology [6] | effect on cell morphology ([7]; MDA-MB-231, 25 and 50 μM) | effect on cell morphology [8] | Log P [9] | effect on cell morphology / cell density ([8]; 50 μM) | electrophoretic mobility of super coiled pBR322 band [10] | effect on cell morphology ([7]; MDA-MB-231, 50 μM)
1 | [Ru(phen)2(dppz)]^2+ | 10^6 to 10^7 M^-1 |  |  |  |  |  |  |  |  |  |  |  |  |  |  |  |  | 
2 | CC[n+]1c(-c2ccccc2)c2cc(N)ccc2c2ccc(N)cc21 [ethidium bromide] | 10^6 to 10^7 M^-1 |  |  |  |  |  |  |  |  |  |  |  |  |  |  |  |  | 
3 | N.N.[Cl][Pt][Cl] [Cisplatin, reference compound] |  | 79.18 ± 0.2 | 2.43 ± 0.2 | 29.4 ± 0.85 |  |  |  |  |  |  |  |  |  |  |  |  |  | 
4 | O=S(=O)([O-])[O-].[Ru+2].c1ccc(-c2ccccn2)nc1.c1ccc(P(CCCCP(c2ccccc2)c2ccccc2)c2ccccc2)cc1 [Complex (1), [Ru(SO4)(dppb)(bipy)]] |  | > 200 | > 200 | 42.8 ± 5.02 | 5.26e+13 | 5.04 ± 0.09 x10^4 M^-1 | 1.10 | 4.65e+13 | 4.45 ± 0.18 x10^4 M^-1 | 1.06 | 72.70 | did not alter the morphology | did not alter the morphology | altered the morphology | 0.26 ± 0.06 |  |  | 
5 | O=C([O-])C(=O)[O-].[Ru+2].c1ccc(-c2ccccn2)nc1.c1ccc(P(CCCCP(c2ccccc2)c2ccccc2)c2ccccc2)cc1 [Complex (3), [Ru(C2O4)(dppb)(bipy)]] |  | > 200 | > 200 | 42.2 ± 2.37 | 1.63e+13 | 1.56 ± 0.13 x10^4 M^-1 | 0.90 | 1.702e+13 | 1.63 ± 0.10 x10^4 M^-1 | 0.85 | 80.00 | did not alter the morphology | did not alter the morphology |  | 0.06 ± 0.008 | reduced cell density |  | 
6 | [Cl-].[Cl-].[Ru+2].c1ccc(-c2ccccn2)nc1.c1ccc(P(CCCCP(c2ccccc2)c2ccccc2)c2ccccc2)cc1 [Precursor, cis-[RuCl2(dppb)(bipy)], reference compound] |  | > 200 | > 200 | 81.9 ± 7.87 |  |  |  |  |  |  |  |  |  |  | -0.40 ± 0.01 |  |  | 
7 | [Ru(CO3)(dppb)(bipy)] [Complex (2)] |  | > 200 | 52.7 ± 0.62 | 31.5 ± 1.06 | 2.935e+13 | 2.81 ± 0.12 x10^4 M^-1 | 1.00 | 3.425e+13 | 3.28 ± 0.14 x10^4 M^-1 | 0.98 | 85.80 | did not alter the morphology |  | did not alter the morphology | 0.55 ± 0.02 |  | increased the electrophoretic mobility | profoundly altered their morphology
